Reference: article PMC12123458, “Unraveling Small Molecule-Mediated Sirtuin 3 Activation at a Distinct Binding Site for Cardioprotective Therapies” (ACS Central Science, 2025)

Experiments:
SIRT2 = target: T1, SIRT2 (Homo sapiens, UniProt Q8IXJ6); assay: Coupled enzymatic assay, acetylated α-tubulin-K25 substrate; format: biochemical; settings: 100 μM
T1 sequence (Q8IXJ6 1-389): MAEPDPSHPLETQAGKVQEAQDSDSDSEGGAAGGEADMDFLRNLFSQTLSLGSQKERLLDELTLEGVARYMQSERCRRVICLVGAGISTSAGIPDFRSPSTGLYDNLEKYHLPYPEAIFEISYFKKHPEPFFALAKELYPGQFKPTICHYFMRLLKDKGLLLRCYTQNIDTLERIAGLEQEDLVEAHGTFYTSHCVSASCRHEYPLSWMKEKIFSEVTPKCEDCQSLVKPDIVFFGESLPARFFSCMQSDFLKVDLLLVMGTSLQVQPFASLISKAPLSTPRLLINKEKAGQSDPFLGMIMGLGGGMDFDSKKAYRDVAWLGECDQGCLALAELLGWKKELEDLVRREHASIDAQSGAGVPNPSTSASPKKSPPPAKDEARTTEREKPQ
Description: Additionally, we used surface plasmon resonance (SPR) to measure the binding of SKLB-11A to immobilized SIRT3. […] We next evaluated the selectivity of SKLB-11A for different SIRT family members. […] We next examined the functional specificity of SKLB-11A using coupled enzymatic assays with isoform-specific, physiologically relevant substrates: acetylated p53-K381 for SIRT1, acetylated α-tubulin-K25 for SIRT2, acetylated MnSOD-K122 for SIRT3, and succinylated CPS1-K537 for SIRT5 (Supplementary Table S3). […] Using Schrödinger molecular docking simulations, we assessed the binding interactions of SKLB-11A with SIRT isoforms.

SIRT3 = target: T2, SIRT3 (Rattus norvegicus, UniProt A0A8I5XWT5); assay: CETSA of SIRT3 in H9c2 cells; format: cell-based; settings: 10 μM, 6 h
T2 construct: endogenous in cells; host or cells: H9c2
T2 sequence (A0A8I5XWT5 1-347): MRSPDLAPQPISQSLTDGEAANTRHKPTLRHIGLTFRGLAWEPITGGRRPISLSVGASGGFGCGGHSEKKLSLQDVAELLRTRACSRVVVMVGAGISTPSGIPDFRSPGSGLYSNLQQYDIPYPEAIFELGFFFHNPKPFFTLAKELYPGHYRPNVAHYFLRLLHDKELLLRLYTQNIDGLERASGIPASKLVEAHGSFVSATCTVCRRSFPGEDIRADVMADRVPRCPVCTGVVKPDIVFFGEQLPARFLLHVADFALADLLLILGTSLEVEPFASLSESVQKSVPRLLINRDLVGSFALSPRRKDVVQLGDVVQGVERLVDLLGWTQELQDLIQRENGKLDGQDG
Experimental: The Cellular Thermal Shift Assay (CETSA) leverages the principle of thermal stabilization of proteins upon ligand binding. H9c2 cells were seeded on 100 mm culture dishes and allowed to adhere for 12 h. Following attachment, cells were treated with SKLB-11A (10 μM) for 6 h, after which they were enzymatically detached using trypsin and harvested. The cell suspension was partitioned into seven equal aliquots, which were then exposed to a range of thermal conditions (37, 41, 45, 49, 53, 57, and 61 °C) for 3 min each. Post-thermal treatment, rapid freezing in liquid nitrogen was performed thrice to ensure cell lysis. The lysates were then subjected to centrifugation at 12,000 rpm for 20 min, and the levels of SIRT3 were analyzed via Western blotting.

SIRT5 = target: T3, SIRT5 (Rattus norvegicus, UniProt Q68FX9); assay: CETSA of SIRT5 in H9c2 cells; format: cell-based
T3 construct: endogenous in cells; host or cells: H9c2
T3 sequence (Q68FX9 37-310): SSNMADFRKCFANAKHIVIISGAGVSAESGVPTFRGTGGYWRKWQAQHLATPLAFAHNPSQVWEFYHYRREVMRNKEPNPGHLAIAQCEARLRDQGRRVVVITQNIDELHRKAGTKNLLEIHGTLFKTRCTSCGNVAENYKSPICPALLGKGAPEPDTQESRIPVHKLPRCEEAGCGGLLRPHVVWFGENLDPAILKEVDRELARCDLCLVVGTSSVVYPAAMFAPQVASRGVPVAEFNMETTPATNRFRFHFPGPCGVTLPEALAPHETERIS

[1] = test system: LC3, p62, PINK1, Parkin in H9c2 cells; assay: Autophagy/mitophagy markers in H9c2 cells (Western blot, immunofluorescence); format: cell-based; settings: 24 h
Experimental: Proteomic analysis was conducted on H9c2 cells and murine cardiac tissues. Protein lysates were resolved via SDS-PAGE and transferred onto PVDF membranes. […] After washing, membranes were probed with secondary antibodies for 1 h at room temperature. Detection was facilitated by an ECL kit, with densitometry performed using ImageJ software to quantify protein expression, normalized against controls. The antibodies employed included: anti-SIRT3 (2627, Cell Signaling Technology), anti-acetylated lysine (9441, CST), anti-Ac.K68-MnSOD2 (ab137037, Abcam), anti-Ac.K122-MnSOD2 (ab214675, Abcam), anti-MnSOD2 (13141, CST), anti-LC3B (3868, CST), anti-p62 (8025, CST), anti-PINK1 (6946, CST), anti-Parkin (4211, CST), and anti-β-actin (ab8226, Abcam).

H9c2 cells = assay: OGD/R injury model in vitro; format: cell-based; settings: pretreatment for 24 h, 10 μM
Experimental: An in vitro oxygen-glucose deprivation (OGD) injury model was established as described in a previous study. OGD injury was induced by incubating cells in glucose-free DMEM under hypoxic conditions (94% N2, 1% O2, and 5% CO2) for 6 h. Before the hypoxic phase, cells were treated with SKLB-11A (10 μM). The cells were then incubated in normoxic conditions with normal medium at 37 °C for the indicated time of 24 h as reperfusion. Untreated cells were used as controls.

COC(=O)c1c(N)n(Cc2ccc(F)cc2)c2nc3ccccc3nc12 [SKLB-11A, Methyl 2-amino-1-(4-fluorobenzyl)-1H-pyrrolo[2,3-b]quinoxaline-3-carboxylate]
effect on basal SIRT2 deacetylation activity (SIRT2): no statistically significant effects | thermal stability of SIRT3 (CETSA) (SIRT3): effectively binds to SIRT3 | thermal stability of SIRT5 (CETSA) (SIRT5): little effect on the thermal stability | LC3-II and p62 (autophagic flux) [1]: increased LC3-II expression and reduced p62 levels | expression of PINK1 and Parkin [1]: increased the expression of PINK1 and Parkin | OGD/R-induced mitochondrial dysfunction (H9c2 cells): significantly ameliorated
